Measured values reported in patent US8163788B2, “Low-molecular inhibitors of cytohesin-family guanine nucleotide exchange factors” (Rheinische Friedrich-Wilhelms Universitat Bonn, priority 2004, dated 2012).

Tested on: human dendritic cells
Assay: migration (chemotaxis) of dendritic cells in modified Boyden chambers on ICAM-1
Type: cell-based
Conditions: 1 μM, 10 μM or 15 μM, 96 hours; chemokines CCL19 or CXCL12; FIG. 5
Experimental: Dendritic cells were produced in vitro by means of differentiation factors (IL-4 and GM-CSF) from blood monocytes that were isolated from peripheral mononuclear cells (PBMC) by Ficoll density gradient centrifugation from the human blood of anonymous donors.
The blood was mixed at a ratio of 1:1 with PBS (KCl 0.2 g/l, KH2PO4 0.2 g/l, NaCl 8 g/l, Na2HPO4 1.15 g/l, PAA, Cölbe)/2 mM EDTA and layered onto half the volume of Ficoll. Centrifugation was carried out at 300×g, 30 minutes with no brake. After the centrifugation, a centered white band appeared which contained the PBMC. This was picked up with PBS/2 mM EDTA, filled up to 50 ml and subjected to several washing steps at 640×g, 500×g, 400×g, 300×g and 200×g. Subsequently, the cells were picked up in a titer of 5×10^6/ml in “VLE-RPMI+/+”-medium (Biochrom, Berlin, containing 10% fetal calf serum (FCS) and 1% penicillin/streptomycin) and incubated for 90 minutes in an incubator at 37° C. [98.6° F.] and 5% CO2. During this time, the monocytes adhere to the bottom of the culture dish. […]
The quantitative analysis of the cell migration was carried out in modified Boyden chambers consisting of a 24-hole plate into which the Transwell® filters with a 5 μm pore size had been placed. […] [98.6° F.] and 5% CO2 in the incubator and subsequently, the number of cells that had migrated into the lower chamber in the direction of the chemokine was determined. […]

With `COc1nc(-c2ccc3c(c2)OCO3)n(-c2ccc(NC(=O)CSc3ccccc3)cc2)n1` [Compound 9] the “inhibition of the migration of dendritic cells on the substrate ICAM-1” value was “concentration-dependent inhibition”.
